Experimental data from US20020013478A1, “Calanolide analogues and methods of their use” (Sarawak Medichem Pharmaceuticals,Inc., priority 1994, published 2002).
Values after ≈ are worked out from the molar mass of the structure shown. Read-outs that look alike come from different tables or passages of the source.

Tests used:
HCMV = HCMV semi-automated CPE-inhibition assay in human foreskin fibroblast cells; format: cell-based, human cytomegalovirus; settings: Table II; for EC50: Human betaherpesvirus 5, Fibroblast
[1] = tested on: human foreskin fibroblast cells; test: Toxicity run with the VZV assay, human foreskin fibroblast cells; format: cell-based; settings: Table II; for IC50: Homo sapiens, Fibroblast
Experimental: (§1) [table] […] The media from the wells is then aspirated and 2 mL of each drug concentration is then added to each well. The cells are then incubated in a CO2 incubator at 37° C. for 72 h. At the end of this time, the media-drug solution is removed and the cells washed. […] The cell-media mixture is then pipetted up and down vigorously to break up the cell suspension, and 0.2 mL of the mixture is added to 9.8 mL of Isoton III and counted using a Coulter Counter. Each sample is counted three times with three replicate wells per sample. The procedure for plating cells and adding drug is the same as for the MTT Assay. After drug addition, the plates are incubated for seven days in a CO2 incubator at 37° C. […] This is incubated in the CO2 incubator for one hour. The dye is aspirated and the cells are washed using a Nunc Plate Washer. […] The plates are rotated for 15 minutes and the optical densities are read at 550 nm on a plate reader.

VZV = VZV plaque reduction assay in human foreskin fibroblast cells; format: cell-based, varicella zoster virus; settings: Table II; for EC50: Human alphaherpesvirus 3, Fibroblast
Experimental: Two days prior to use, HFF cells are plated into six-well plates and incubated at 37° C. with 5% CO2 and 90% humidity. On the date of assay, the drug is made up at twice the desired concentration in 2x MEM and then serially diluted 1:5 in 2x MEM using six concentrations of drug. The initial starting concentration is usually 200 gg/mL down to 0.06 μg/mL. The virus to be used is diluted in MEM containing 10% FBS to a desired concentration which will give 20-30 plaques per well. The media is then aspirated from the wells and 0.2 mL of virus is added to each well in duplicate with 0.2 mL of media being added to drug toxicity wells. The plates are then incubated for one hour with shaking every fifteen minutes. After the incubation period, an equal amount of 1% agarose was added to an equal volume of each drug dilution. This will give final drug concentrations beginning with 100 μg/mL and ending with 0.03 μg/mL and a final agarose overlay concentration of 0.5%. The drug agarose mixture is applied to each well in 2 mL volume and the plates then incubated for three days, after which the cells were stained with a 1.5% solution of neutral red. At the end of 4-6hr incubation period, the stain is aspirated, and plaques counted using a stereomicroscope at lOx magnification.
The procedure is essentially the same as for the HSV plaque assay described above with two exceptions:
1. After addition of the drug, the plates are incubated for ten days.
2. On days three and six, an additional 1 mL overlay with equal amounts of 2x MEM and 1% agarose are added.

HBV = HBV replication in cultures of 2.2.15 cells, extracellular HBV virion DNA (primary assay); settings: for EC50: read-out: HBV EC50
[2] = tested on: human foreskin fibroblast cells; test: Toxicity run with the HCMV assay, human foreskin fibroblast cells; format: cell-based; settings: Table II; for IC50: Homo sapiens, Fibroblast
Experimental: as §1

Raji or Daudi cells = test: Toxicity run with the EBV assay; format: cell-based, human; settings: Table II; for IC50: Homo sapiens
Excerpt: IC50 (50% inhibitory concentration) is the concentration required to inhibit cell proliferation by 50%

EBV = EBV assay: superinfection of Raji or Daudi cells with P3HR-1, immunofluorescence for EA and VCA; format: cell-based, Epstein-Barr virus; settings: Table II; for EC50: human gammaherpesvirus 4
Excerpt: There are two prototypes of infectious EBV. One is exemplified by the virus derived from supernatant fluids of the P3HR-1cell line. This cell line produces nontransforming virus that causes the production of early antigen (EA) after primary infection or superinfection of B cell lines. The other prototype is exemplified by the B-95-8 virus. This virus immortalized cord blood lymphocytes and induced tumors in marmosets.
The virus used in our assays is P3HR-1.
Ramos is an exceptional B cell line derived from Burkitt's lymphoma tumor but containing no detectable EBV genome copies and is EBNA negative. Ramos/AW was obtained by in vitro infection of Ramos with the P3HR-1 virus and contains one resident EBV genome copy/cell. Raji is a Burkitt's lymphoma cell line containing 60 EBV genomes/cell, and will be the primary cell used for screening antiviral activity against EBV EA expression. Daudi is a low level producer that contains 152 EBV genome copies/cell. It spontaneously expresses EBV EA in 0.25%-0.5% of the cells. It will be used in follow-up studies to confirm activity. These cell lines respond to superinfection by EBV by expressing EA(D), EA(R), and VCA. All cell lines are maintained in RPMI-1640 medium supplemented by 10% FCS, L-glutamine and 100 μg/mL gentamicin. The cultures are fed twice weekly and the cell concentration adjusted to 3×10^5/mL. The cells are kept at 37° C. in a humidified atmosphere with 5% CO2.
Cells are infected with the P3HR-1 strain of EBV and the drugs to be tested are added after adsorption (45 minutes at 37° C.) and washing of the cell cultures. The cultures are incubated for two days in complete medium to allow viral gene expression. Following the 48 hr incubation period, the number of cells of each sample are counted and smears made. Monoclonal antibodies to the different EA components and VCA are then added to the cells incubated and washed. This is followed by a fluorescein conjugated rabbit anti-mouse Ig antibody; and the number of fluorescence positive cells in the smears are counted. The total number of cells in the cultures positive for EA or VCA are then calculated and compared.

2.2.15 cells = test: Toxicity in 2.2.15 cells, neutral red dye uptake; format: cell-based, human; settings: Table II, read-out: HBV IC50
Experimental: Cells of 2.2.15 were grown to confluence in 96-well flat-bottomed tissue culture plates and treated with compounds (in 0.2 mL culture medium/well) as described above. Four concentrations of each compound were assayed, each in triplicate cultures, in 3- to 10-fold steps. Untreated control cultures were maintained on each 96-well plate. On each 96-well plate, wells containing no cells were used to correct for light scattering.

CEM-SS cells = test: CEM-SS MTT assay, cytotoxicity (Table I); format: cell-based, human
HIV-1 = settings: CEM-SS MTT assay
[3] = tested on: HCMV isolates Towne, AD169, E. Mann, Coffman, C9208; test: Anti-CMV plaque reduction assay against various laboratory and clinical isolates (Example 40); format: cell-based, human cytomegalovirus
Experimental: On the date of assay, the drug is made up at twice the desired concentration in 2x MEM and then serially diluted 1:5 in 2x MEM using six concentrations of drug. The initial starting concentration is usually 200 gg/mL down to 0.06 μg/mL. […] The media is then aspirated from the wells and 0.2 mL of virus is added to each well in duplicate with 0.2 mL of media being added to drug toxicity wells. The plates are then incubated for one hour with shaking every fifteen minutes. […] This will give final drug concentrations beginning with 100 μg/mL and ending with 0.03 μg/mL and a final agarose overlay concentration of 0.5%. The drug agarose mixture is applied to each well in 2 mL volume and the plates then incubated for three days, after which the cells were stained with a 1.5% solution of neutral red. At the end of 4-6hr incubation period, the stain is aspirated, and plaques counted using a stereomicroscope at lOx magnification. The procedure again is nearly the same as for HSV with a few minor changes. […] The assay is incubated for 14 days with the additional 1 mL overlays being applied on days four and eight. The procedure for the liquid overlay plaque assay is similar to that using the agarose overlay. The procedure for adding the virus is the same as for the regular plaque assay. The drugs are made up in a concentration to be used in MEM with 2% FBS. The drugs are not made up at 2x concentration as in the previous assays but are made up at the desired concentration. For HSV-1 and HSV-2 assays, an antibody preparation obtained from Baxter Health Care Corporation is diluted 1:500 and added to the media that the drug is diluted in. For CMV and VZV, no antibody in the overlay is utilized. For the CMV assay, additional medium without new drug is added on day five and allowed to incubate for a total of 10 days. For VZV, additional medium is added on day five and incubated for a total of 10 days. At the end of the incubation period for all of the assays, 2 mL of 1:10 dilution of stock neutral is added to each well incubated for six hours. The liquid is then aspirated off and plaques enumerated using a stereomicroscope. Five calanolide analogues, prepared as described above, were further evaluated for their anti-HCMV activity in plaque reduction assay against various laboratory and clinical isolates (Towne, AD 169, E. Mann, Coffinan, and […]).

| SMILES | HCMV EC50 (HCMV) [µg/mL] | VZV IC50 [1] [µg/mL] | VZV EC50 (VZV) [µg/mL] | EC50 (HBV; Table II) [µM] | HCMV IC50 [2] [µg/mL] | EBV IC50 (Raji or Daudi cells) [µg/mL] | EBV EC50 (EBV) [µg/mL] | IC50 (2.2.15 cells) [µM] | EC50 (HCMV) [µg/mL] | EC50 (HBV; Hepatitis B virus) [µM] | IC50 [2] [µg/mL] | IC50 (Raji or Daudi cells) [µg/mL] | EC50 (EBV) [µg/mL] | IC50 (2.2.15 cells; Homo sapiens) [µM] | other results |
| --- | --- | --- | --- | --- | --- | --- | --- | --- | --- | --- | --- | --- | --- | --- | --- |
| CCCc1cc(=O)oc2c3c(c4c(c12)OC(C)(C)C=C4)OC(C(C)C)C(C)C3=O (racemic) [(+)-15e] | >20 | >100 | >100 | > 10 | 75.3 | >50 | >50 | 86 | – | – | – | – | – | – | – |
| CCCc1cc(=O)oc2c3c(c4c(c12)OC(C)(C)C=C4)OC(C)(C)C(C)C3=O (racemic) [(±)-15b, (±)-10,11-Dihydro-6,6,10,10,11-pentamethyl-4-propyl-2H, 6H, 12H-benzo[1,2-b:3,4-b′:5,6-b″]tripyran-2,12-dione] | – | – | – | – | – | – | – | – | > 20 | > 10 | 52.3 (≈ 137 µM) | > 50 | > 50 | 307 | IC50 [1]: 66.7 µg/mL (≈ 174 µM); EC50 (VZV): > 20 µg/mL; IC50 (CEM-SS cells; Homo sapiens): 21 µM |
| CCCc1cc(=O)oc2c3c(c4c(c12)OC(C)(C)C=C4)OC(CC)C(C)C3=O (racemic) [(±)-15c, (±)-10,11-trans-10,11-Dihydro-10-ethyl-4-propyl-6,6,11-trimethyl-2H,6H,12H-benzo[1,2-b:3,4-b ″]tripyran-2,12-dione] | >20 | 68.0 | >20 | > 10 | 77.6 | >50 | >50 | 152 | – | – | – | – | – | – | Maximum Protection (%) (HIV-1): 47%; IC50 (CEM-SS cells): 6.8 µM |
| CCCc1cc(=O)oc2c3c(c4c(c12)OC(C)(C)CC4)OC(C)C(C)C3=O (racemic) [(±)-18a, (±)-10,11-trans4-Propyl-7,8,10,11-tetrahydro-6,6,10,11-tetramethyl-2H,6H,12H-benzo [1,2-b:3,4-b′5,6-b″]tripyran-2,12-dione] | >4.0 | 33.3 | 15.4 | > 10 | 19.5 | >50 | 24.5 | 88 | – | – | – | – | – | – | EC50 (HIV-1): 2.47 µM; Maximum Protection (%) (HIV-1): 60%; IC50 (CEM-SS cells): 9.19 µM |
| CCCc1cc(=O)oc2c3c(c4c(c12)OC(C)(C)CC4)OC(C)C(C)C3=O (single isomer, unassigned; (+)) [(+)-18a] | >100 | >100 | >100 | > 10 | >100 | >50 | >50 | 88 | – | – | – | – | – | – | – |
| CCCc1cc(=O)oc2c3c(c4c(c12)OC(C)(C)C=C4)OC(C)C(C)C3=O (single isomer, unassigned; (-)) [(−)-7] | >20 | – | – | > 10 | 23.7 | 23.7 | >20 | 327 | – | – | – | – | – | – | – |
| CCCc1cc(=O)oc2c3c(c4c(c12)OC(C)(C)C=C4)O[C@H](C)[C@H](C)C3=O [(+)-7a] | – | – | – | – | – | – | – | – | > 4 | 2.5 | 11.6 (≈ 31.5 µM) | 11.9 (≈ 32.3 µM) | > 4 | 382 | EC90 (HBV; Hepatitis B virus, read-out: HBV EC90): 11 µM |
| CCCc1cc(=O)oc2c3c(c4c(c12)OC(C)(C)C=C4)O[C@@H](C)[C@H](C)[C@@H]3O [(−)-calanolide B, (-)-Calanolide B] | 2.6 | 20.0 | >4.0 | > 10 | 78.4 | >50 | >50 | 1000 | – | – | – | – | – | – | EC50 ([3]; isolate AD169): 3.16 µM; EC50 ([3]; isolate C9208): 2.01 µM; EC50 ([3]; isolate Coffman): 3.18 µM; EC50 ([3]; isolate E. Mann): 3.16 µM; EC50 ([3]; isolate Towne): 3.2 µM |
| CCCc1cc(=O)oc2c1c1c(c3oc(C)c(C)c(=O)c32)C=CC(C)(C)O1 [Compound 5, 6,6,10,11-tetramethyl-4-propyl-2H,6H,12H-benzo[1,2-b:3,4-b′:5,6-b″]tripyran-2,12-dione] | – | – | – | – | – | – | – | – | > 100 | > 10 | > 100 | > 50 | > 50 | 2080 | IC50 [1]: 52.2 µg/mL (≈ 142 µM); EC50 (VZV): > 20 µg/mL |
